Patent US5859025A, “Fluoroalkyl- and fluoroalkoxy-substituted heterocyclic bradykinin antagonists, process for their preparation, and their use” (Hoechst Aktiengesellschaft, priority 1996, dated 1999)

Legend:
bradykinin B2 receptor = molecular target: T1, bradykinin B2 receptor (Cavia porcellus, UniProt O70526); test: binding to the bradykinin B2 receptor of the guinea-pig ileum (3H-bradykinin competition); conditions: 3H-bradykinin 0.25 to 0.3 nmol/l, guinea-pig ileum membranes; for Ki: LIGAND program; for IC50: room temperature, 60 minutes
T1 construct: The guinea-pig ilea are roughly freed of the intestinal contents by careful stripping; from tissue; host or cells: guinea-pig ileum, membrane preparation
T1 sequence (O70526 1-372): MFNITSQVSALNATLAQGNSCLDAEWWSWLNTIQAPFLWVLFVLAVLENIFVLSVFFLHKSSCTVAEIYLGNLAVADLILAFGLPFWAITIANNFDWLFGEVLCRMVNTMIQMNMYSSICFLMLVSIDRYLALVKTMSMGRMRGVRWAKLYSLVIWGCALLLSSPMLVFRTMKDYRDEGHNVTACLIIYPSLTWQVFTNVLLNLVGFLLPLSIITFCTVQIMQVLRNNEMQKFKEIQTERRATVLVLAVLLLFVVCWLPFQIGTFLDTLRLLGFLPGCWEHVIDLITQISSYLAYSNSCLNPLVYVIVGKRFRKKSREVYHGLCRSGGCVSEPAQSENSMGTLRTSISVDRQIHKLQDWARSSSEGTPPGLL
Method: The measurement of the binding to the bradykinin B2 receptor of the guinea-pig ileum is described in the following (R. B. Innis et al., Proc. Natl. Acad. Sci. USA; 17 (1981) 2630): […]
25 mM TES (SIGMA, Order No: T-4152)
1 mM 1,10-phenanthroline (SIGMA; Order No: P-9375)
25 mM TES (SIGMA; Order No.: T-4152)
1 mM 1,10-phenanthroline (SIGMA; Order No.: P-9375)
0,1% albumin, bovine (SIGMA; Order No.: A-7906)
140 mg/ml bacitracin (SIGMA; Order No.: B-0125)
1 mM dithiothreitol (SIGMA; Order No.: D-0632)
1 mM captopril® 1-[(2S)-3-mercapto-2-methylpropionyl]-L-proline
Both buffers are adjusted to pH 6.8 using 5 molar NaOH.
The guinea-pig ilea are roughly freed of the intestinal contents by careful stripping and cleaned in 0.9% strength NaCl solution. The pieces of ilea, which are about 2 cm long, are transferred to ice-cold TES buffer (about 1 g/10 ml) and homogenized in an ice-bath for 30 sec. using an Ultraturrax. The homogenate is then filtered through 3 layers of gauze and the filtrate is centrifuged at 50,000 g for 10 minutes. The supernatant is discarded, and the pellet is rehomogenized in the same volume of TES buffer and centrifuged again at 50,000 g for 10 minutes. The pellet is rehomogenized in incubation buffer (about 1 g/5 ml) and frozen at -70° C. in cryotubes, divided into 2 ml portions.
The protein concentration of the ready-to-use membrane suspension is determined according to LOWRY and should be about 15 mg/100 ml.
All incubations are carried out at room temperature for 60 minutes on microtiter plates (96×300 ml) in 200 ml volumes. All mixtures in incubation buffer. To this end, 50 ml of the radioligand, 50 ml of the preparation to be tested and 100 ml of the membrane suspension are pipetted successively into the depressions of the microtiter plate. […]
a) Saturation Experiments (hot saturation)
Preparation of the ^3 H-bradykinin solution: For the saturation experiments, the concentrations 0.05, 0.1, 0.2, 0.4, 0.6, 0.8, 1.0, 1.5, 2.0, 2.5 and 3.0 nmol/l are employed, which correspond to 0.05 to 3.0 pmol/ml. After the preparation of the corresponding dilutions, 50 ml each per sample are initially introduced.
Nonspecific binding: For each concentration of the radioactive ligand, the nonspecific binding must be determined. This can be achieved by addition of a high concentration (1-100 mmol) of the unlabeled ligand, other antagonists or agonists of the bradykinin receptor. […] For this, 1.862 mg are dissolved in 1 ml of dimethyl sulfoxide (DMSO), diluted 1:25 with incubation buffer and 50 ml of this solution are added to the samples in the microtiter plates. The reaction is started by the addition of […] of the membrane suspension. […]
b) Competition Experiments (IC50)
Here a fixed quantity of the radioactive ligand (0.25 to 0.3 nmol/l of ^3 H-bradykinin) and various concentrations of the unlabeled agonists or antagonists are employed. 50 ml of the preparations or standards to be tested in the concentrations 10^-5 to 10^-10 mol/l are added to in each case 50 ml of the ^3 H-bradykinin solution and the reaction is started by addition of […] of membrane suspension. In this test too, triplicate determinations are carried out and three samples are incubated with […] of HOE 140 to determine the nonspecific binding.
The preparations to be tested for competition are always dissolved at a concentration of 1 mmol/l in dimethyl sulfoxide (DMSO), and then further diluted with DMSO. This solution is then diluted 1:25 with incubation buffer.
After incubation, the samples are filtered off in a Skatron cell harvester through a Whatmann GF/B filter previously moistened with 0.1% PEI (polyethylenimine) and washed with 10 ml of ice-cold TES buffer per sample. The still moist filters are punched out into mini-scintillation tubes and the tubes are filled with 3 ml of scintillator. After about 12 hours soaking time, the samples are briefly shaken and measured in a beta counter. […]

[1] = test system: bradykinin-induced contraction of the guinea-pig ileum; test: antagonist action on the bradykinin-induced contraction of the guinea-pig ileum; type: cell-based; conditions: Cavia porcellus, 10 min; isolated guinea-pig ileum, bradykinin 4×10^-8 mol/l, time of action 10 min, 37° C.
Method: The determinations of the antagonist action on the bradykinin-induced contraction of the guinea-pig ileum were carried out according to the following protocol:
Guinea-pigs weighing about 300 g (Morioth strain,--) are killed by a blow to the neck and exsanguinated. The ileum is dissected out in a length of about 20 cm, rinsed with Tyrode solution (Record syringe) and thus freed of intestinal contents. It is then divided into sections 1.5 cm long. These are fixed in organ baths of capacity 10 ml, which are filled with Tyrode solution, and connected to extension-measuring strips (isometric contraction measurement). The preload is 1 g. The Tyrode solution is warmed to 37° C. in a water bath and bubbled through with compressed air. After an interval of 30 min. the experiment is begun. After recording the biological zero line, bradykinin at a final concentration of 4×10^-8 mol/l per organ bath is added and the […] is recorded. The organ bath is then rinsed for 3 min with Tyrode solution and, after a break of 20 min., bradykinin is added again. The maximum of the contraction is achieved (control). Rinse again, break. The bradykinin antagonist is then added (time of action 10 min). Bradykinin is then added again and the ensuing contraction is compared with that of the control. The experiment is recorded on a pen recorder. […]
______________________________________ […]

[2] = test system: bradykinin contraction of the isolated rabbit jugular vein; test: in-vitro duration of action on the isolated rabbit jugular (bradykinin-induced contraction); type: cell-based, rabbit (white New Zealand); conditions: for inhibition at 10 µM: Oryctolagus cuniculus, 0.25 h, time 15 min, test substance (10^-5 M) present in bath, bradykinin 10^-7 M; for inhibition at 10 µM / Inhibition of the bradykinin contraction in %: mean, n=6; for inhibition after 4 h (in words): test substance 10^-5 M; for Inhibition of the bradykinin contraction in %: after rinsing (test substance 10^-5 M no longer in bath)
Method: The compounds of Examples 1, X and Y were compared. Examples X and Y are described in EP-A 622 361.
Comparison of the in-vitro duration of action of heterocyclic bradykinin antagonists on the isolated rabbit jugular
Male rabbits (white New Zealand, breeder: Mollegaard, Denmark, 2.5-3.0 kg) are killed by injection of an overdose of Pentobarbital-Na (1 ml of Narcoren®+0.5 ml of heparin). The two jugular veins are exposed, cut spirally and pieces of about 1.5 cm length are suspended in buffered organ baths (Krebs-Henseleit buffer) at a pretension of 0.5 g.
After a rest period of 30 min, contractions are induced by addition of bradykinin (10^-7 M), which serve as the starting value. Test substances are then added at a concentration of 10^-5 M. The inhibitory values shown are mean values (n=6). […] The bradykinin contraction is then ended by rinsing with just buffer solution.
At each further time shown, stimulation was again carried out with bradykinin (in the absence of the test substance in the bath fluid) and at the end of the contraction the bath fluid was replaced by just buffer solution.

Ki (bradykinin B2 receptor)	IC50 (bradykinin B2 receptor)	Structure (SMILES)	inhibition at 10 µM [2]	Inhibition of the bradykinin contraction in % ([2]; time 210 min)	Inhibition of the bradykinin contraction in % ([2]; time 240 min)	other results
0.01 µM	0.095 µM	Cc1ccc2cccc(OCc3c(Cl)ccc(N(C)C(=O)CNC(=O)OCc4ccc(OC(F)(F)F)cc4)c3Cl)c2n1 [Example 22]	–	–	–	–
0.004 µM	0.04 µM	Cc1ccc2c(C)ccc(OCc3c(Cl)ccc(N(C)C(=O)CNC(=O)/C=C/c4ccc(C(F)(F)F)cc4)c3Cl)c2n1 [Example 2]	–	–	–	IC50 [1]: 1.5 µM
–	–	COc1cccc(/C=C/C(=O)NCC(=O)N(C)c2ccc(Cl)c(COc3cccc4ccc(C)nc34)c2Cl)c1 [Example Y]	96%	59%	31%	inhibition after 4 h (in words) [2]: no longer show any inhibition; Inhibition of the bradykinin contraction in % ([2]; time 30 min, bradykinin): 97%; Inhibition of the bradykinin contraction in % ([2]; time 180 min): 84%; Inhibition of the bradykinin contraction in % ([2]; time 270 min): 3%
0.0034 µM	0.028 µM	Cc1ccc2cccc(OCc3c(Cl)ccc(N(C)C(=O)CNC(=O)Cc4ccc(C(F)(F)F)cc4)c3Cl)c2n1 [Example 8]	–	–	–	–
0.0051 µM	0.038 µM	Cc1ccc2cccc(OCc3c(Cl)ccc(N(C)C(=O)CNC(=S)Nc4cccc(C(F)(F)F)c4)c3Cl)c2n1 [Example 29, 8-[3-N-(3-Trifluoromethylphenylthioureidoacetyl-N-methylamino)-2,6-dichlorobenzyloxy]-2-methylquinoline]	–	–	–	–
0.001 µM	0.009 µM	Cc1ccc2cccc(OCc3c(Cl)ccc(N(C)C(=O)CNC(=O)/C=C/c4ccc(C(F)(F)F)cc4)c3Cl)c2n1 [Example 1, 8-[3-(N-(4-trans-Trifluoromethylcinnamoylglycyl)-N-methylamino)-2,6-dichlorobenzyloxy]-2-methylquinoline]	98%	95%	92%	IC50 [1]: 0.044 µM; in-vitro duration of action (in words) ([2]; isolated rabbit jugular, compared with Examples Y and X): distinctly longer in-vitro duration of action; Inhibition of the bradykinin contraction in % ([2]; time 30 min, bradykinin): 99%; Inhibition of the bradykinin contraction in % ([2]; time 60 min): 99%; Inhibition of the bradykinin contraction in % ([2]; time 270 min): 87%; Inhibition of the bradykinin contraction in % ([2]; time 300 min): 78%; Inhibition of the bradykinin contraction in % ([2]; time 330 min): 71%; Inhibition of the bradykinin contraction in % ([2]; time 360 min (6 h)): 68%
–	–	Cc1ccc(/C=C/C(=O)NCC(=O)N(C)c2ccc(Cl)c(COc3cccc4ccc(C)nc34)c2Cl)cc1 [Example X]	97%	58%	30%	inhibition after 4 h (in words) [2]: no longer show any inhibition; Inhibition of the bradykinin contraction in % ([2]; time 120 min): 95%; Inhibition of the bradykinin contraction in % ([2]; time 150 min): 87%; Inhibition of the bradykinin contraction in % ([2]; time 180 min): 74%
